Reference: patent US7384966B2, “2-arylbenzothiazole derivatives” (Pharminxo Limited, priority 2004, dated 2008)
“Also recorded” adds a separate entry of the source. Like-named read-outs stand apart in the source and are kept apart here.

Assays:
MCF-7 [1] = assay: MTT assay, 3 day exposure, MCF-7; assay type: cell-based; details: Homo sapiens, read-out: GI50 values in cell lines, MCF-7
Procedure: (§1) A range of compounds were evaluated in MTT assays following 3 day exposure against a panel of two human breast cancer cell lines MCF-7 (ER+) and MDA 468 (ER−), and two colon cancer cell lines KM12 and HCC 2998. In general the breast cell lines were more sensitive to the agents and the MDA 468 line the most sensitive of the four (Table 2). The benchmark active compound was 5-fluoro-2-(3,4-dimethoxyphenyl)benzothiazole (1) with GI50 values<0.1 nM against the two breast cell lines. […] The most interesting series of compounds were those combining a 5-fluoro group with two oxygenated substituents in the 3′,4′-positions where minor, seemingly conservative, structural changes were associated with a dramatic variations in activity (when compared to 1). […] In summary, this in vitro screen led to the identification of the fluorinated 2-(3,4-dimethoxyphenyl)benzothiazole structure as a novel antitumor pharmacophore with the 5-fluoro analogue (1) astride a pinnacle of activity.
(§2) The assays/methods used to generate the results referred to herein are well known to those skilled in the art and therefore it has not been necessary to describe them in detail.

[2] = test system: NCI in vitro 60 human cancer cell panel; assay: NCI in vitro 60 human cancer cell panel, sulforhodamine B assay; assay type: cell-based; details: for sensitivity of cancer cell panels / antitumour activity in vitro: NCI mean GI50 graphs, FIGS. 1 and 8 to 12
Procedure: Results from the more extensive NCI in vitro 60 human cancer cell panel^15 corroborated the results (above). The mean GI50 values across the range of compounds (above), including the two series of esters (11-21) are an unremarkable 10-100 μM (data not shown); however, these values disguise significant cell selectivity. […] Full NCI mean GI50 graphs for compounds (1,2,3,4,101,102) are included herein as FIGS. 1 and 8 to 12.
The results shown on FIG. 1 were generated by treating the cells with an active agent for 48 hours, in this case compound 1, before determination of viability by sulforhodamine B assay.

cyp lal [3] = assay: Induction of cyp lal gene transcription; assay type: cell-based
Procedure: These cell lines are known to be sensitive to compound 1 and 2-(4-amino-3-methylphenyl)-5-fluorobenzothiazole (102, 5F 203; NSC 703786; WO 95/06469) In cell lines which are sensitive to compound 1 only, cyp lal gene transcription was not induced.
The results shown in FIG. 2 were generated by treating the cells with 1 μM of an active agent for 24 hours before determination of changes in cyp lal gene expression.

cyp lal [4] = assay: Induction of cyp lal protein expression by Western Blot; assay type: cell-based
Description: These findings have been verified following examination of induction of cyp lal protein expression by Western Blot. The following cell lines were used to represent sensitive models: MCF-7, MDA 468 (breast carcinoma), KM12 and HCC 2998 (colon carcinoma) lines.

KM 12 = assay: MTT assay, 3 day exposure, KM12; assay type: cell-based, human; details: KM 12 (colon), read-out: GI50 values in cell lines, KM 12
Procedure: as §1, §2

HCC 2998 = assay: MTT assay, 3 day exposure, HCC 2998; assay type: cell-based; details: Homo sapiens, HCC 2998, 72 h, HCC 2998 (colon), MTT, 3 day exposure, triplicate; read-out: GI50 values in cell lines, HCC 2998
Procedure: as §1, §2

cyp lal [5] = molecular target: T1, cyp lal (Homo sapiens, UniProt P04798); assay: Inhibition of cyp lal (EROD) activity, de-ethylation of ethoxyresorufin by cyp lal microsomes; assay type: biochemical
T1 construct: host or cells: microsomes
T1 sequence (P04798 1-512): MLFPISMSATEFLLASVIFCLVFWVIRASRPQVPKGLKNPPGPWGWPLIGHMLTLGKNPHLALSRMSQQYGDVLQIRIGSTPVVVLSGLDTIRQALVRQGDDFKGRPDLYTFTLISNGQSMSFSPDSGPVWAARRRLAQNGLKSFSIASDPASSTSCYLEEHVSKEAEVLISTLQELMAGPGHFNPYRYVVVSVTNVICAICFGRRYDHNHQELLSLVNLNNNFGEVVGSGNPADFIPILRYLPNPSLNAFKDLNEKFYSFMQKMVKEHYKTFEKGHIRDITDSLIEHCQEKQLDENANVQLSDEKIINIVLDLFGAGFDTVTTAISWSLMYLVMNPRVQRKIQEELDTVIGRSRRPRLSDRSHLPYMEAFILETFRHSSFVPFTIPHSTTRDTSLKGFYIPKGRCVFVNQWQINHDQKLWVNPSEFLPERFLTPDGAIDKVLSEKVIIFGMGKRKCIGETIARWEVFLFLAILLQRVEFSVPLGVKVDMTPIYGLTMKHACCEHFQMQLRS
Procedure: Compound 1 inhibits cyp lal (EROD) activity in a dose dependent manner (IC50=8 μM; FIG. 4).
The results shown in FIG. 4 were generated by measuring the de-ethylation of ethoxyresorufin by cyp lal microsomes in the absence and the presence of increasing concentrations of compound 1. DF 203 was used as a positive control.

MDA 468 = assay: MTT assay, 3 day exposure, MDA 468; assay type: cell-based; details: Homo sapiens, MDA 468 (breast), read-out: GI50 values in cell lines, MDA 468
Procedure: as §1, §2

cyp lbl = assay: Induction of cyp lbl gene transcription; assay type: cell-based
[6] = test system: DNA of MCF-7, MDA 468, KM12 and HCC 2998 cells; assay: DNA adduct formation; assay type: cell-based, human; details: MCF-7, MDA 468, KM 12 and HCC 2998 cells; 10 μM, 24 hours
[7] = test system: MCF-7, MDA 468, KM12 and HCC 2998; assay: MTT assay, panel of four cell lines, results in words; assay type: cell-based, human; details: compared to compound 1
Procedure: as §1

MCF-7 [8] = assay: Growth inhibition alone or in combination with resveratrol, MCF-7; assay type: cell-based, human; details: MCF-7 (cyp lal-inducible), resveratrol 51 μM
Procedure: The results shown in FIGS. 3a and 3b were generated using MCF-7 (FIG. 3a) and HCC 2998 (FIG. 3b) cells. The said cells were treated with DF 203 or compound 1, alone or in combination with resveratrol (51 μM) an inhibitor of cyp lal activity. It can be seen that in MCF-7 cells (cyp lal-inducible) the activity of DF 203 was abolished.

MCF-7 [9] = details: aminophenyl benzothiazole sensitive cells with inducible cyp lal; Hose et al 2003; cited from earlier work
[10] = MCF7, 72 h, MCF-7 (breast), MTT, 3 day exposure, triplicate
[11] = MCF7, MCF-7 (breast), value in nM
[12] = Homo sapiens, KM12, 72 h, MTT, 3 day exposure, triplicate
[13] = 72 h, MTT, 3 day exposure, triplicate

Compound	GI50 (MCF-7 [1]; [10])	GI50 (KM 12; [12])	GI50 (HCC 2998)	GI50 (MDA 468; [13])	sensitivity of cancer cell panels / antitumour activity in vitro [2]	melting point	growth inhibitory potency in words [7]	other results
COc1ccc(-c2nc3cc(F)ccc3s2)cc1OC [Compound 1, 2-(3,4-dimethoxyphenyl)-5-fluorobenzothiazole]	< 0.1 nM	290 nM	0.25 nM	< 0.1 nM				GI50 (MCF-7 [1]; [11]): < 0.1 nM; GI50 ([2]; Homo sapiens, colon and NSCL sub-panels, 48 hours, read-out: GI50 values against some cell lines): < 10 nM; induction of cyp lal gene transcription (cyp lal [3]; MCF-7, T-47D, TK-10, NC1 and 1460 cells, 1 μM, 24 hours): able to induce cyp lal gene transcription; induction of cyp lal gene transcription (cyp lal [3]; cell lines which are sensitive to compound 1 only): not induced; induction of cyp lal protein (cyp lal [4]; colon cell lines KM12 and HCC 2998): not induced; induction of cyp lal protein (cyp lal [4]; lysates of MCF-7 and MDA 468 breast cells): Induction of cyp lal protein was observed; IC50 (cyp lal [5]): 8000 nM; GI50 (MDA 468; value in nM): < 0.1 nM; induction of cyp lbl gene transcription (cyp lbl): can be induced; induction of cyp lbl transcription (cyp lbl; certain compound 1-sensitive colon and lung carcinoma cells): no induction of cyp-lbl transcription
COc1ccc(-c2nc3c(F)cccc3s2)cc1OC [Compound 2, 4-Fluoro-2-(3,4-dimethoxyphenyl)benzothiazole]	5 nM	850 nM		5 nM	reduced activity against cancer cells when compared to compound 1; also recorded: substantial potent and selective antitumour activity; also recorded: potent (but attenuated compared to 1), activity in the colon and NSCL sub-panels	129 °C	retained nanomolar growth inhibitory potency against one or more of the cell lines	GI50 (MCF-7 [1]; [11]): 2.9 nM; GI50 (KM 12; value in nM): 78.4 nM; DNA adducts formed [6]: One major adduct species; GI50 (MDA 468; value in nM): 3.4 nM
COc1ccc(-c2nc3ccc(F)cc3s2)cc1OC [Compound 3, 6-Fluoro-2-(3,4-dimethoxyphenyl)benzothiazole]	62 nM	24100 nM	6210 nM	5 nM	reduced activity against cancer cells when compared to compound 1; also recorded: demonstrates antitumour activity in vitro; also recorded: potent (but attenuated compared to 1), activity in the colon and NSCL sub-panels	153 to 155 °C	retained nanomolar growth inhibitory potency against one or more of the cell lines	
COCOc1ccc(-c2nc3cc(F)ccc3s2)cc1OC [Compound 44, 5-Fluoro-2-(3-methoxy-4-methoxymethyloxyphenyl)benzothiazole]	65 nM	19200 nM	53500 nM	48 nM		101 to 102 °C	dyschemotherapeutic effect	
Cc1cc(-c2nc3ccccc3s2)ccc1N [Compound 101, 2-(4-amino-3-methylphenyl)benzothiazole, reference compound]	< 0.1 nM	> 100000 nM	> 100000 nM	< 0.1 nM	ovarian and breast cancer cells are particularly sensitive			effect of resveratrol on growth inhibitory activity (MCF-7 [8]): block the activity; effect of resveratrol on growth inhibitory activity (MCF-7 [8]; listed as DF 203): abolished
COc1ccc(-c2nc3ccccc3s2)cc1OC [Compound 4, 2-(3,4-Dimethoxyphenyl)benzothiazole]				530 nM	no cancer cells to be particularly sensitive; also recorded: attenuated pattern of activity	141 to 143 °C	retained sub-micromolar activity against MDA 468	
Cc1cc(-c2nc3cc(F)ccc3s2)ccc1N [Compound 102, 2-(4-amino-3-methylphenyl)-5-fluorobenzothiazole, reference compound]	< 0.1 nM	> 100000 nM	> 100000 nM	< 0.1 nM	non-small cell lung, ovarian, renal and breast cancel cells to be particularly sensitive			effect of resveratrol on activity (MCF-7 [9]): block the activity
COc1ccc(-c2nc3cc(Br)ccc3s2)cc1OC [Compound 24, 5-Bromo-2-(3,4-dimethoxyphenyl)benzothiazole]	13600 nM	65200 nM	20000 nM	770 nM		157 to 158 °C	essentially abolished inhibitory potency	
COc1ccc(-c2nc3cc(F)ccc3s2)cc1O [Compound 5, 5-Fluoro-2-(3-hydroxy-4-methoxyphenyl)benzothiazole]	500 nM	18400 nM	7600 nM	50 nM		169 to 172 °C	dyschemotherapeutic effect	
